In US20250282799A1, “SUBSTITUTED PYRIDO[4,3-d]PYRIMIDINES AS KRAS MODULATORS” (Alterome Therapeutics, Inc., priority 2023, published 2025):

Test system: KRAS G12V dependent lung adenocarcinoma cell line, NCI-H441
Test: Cellular pERK (Thr202/Tyr204) FRET/HTRF assay
Assay type: cell-based
Conditions: NCI-H441 cells
Summary of the method: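 Read-out is a wash-free FRET sandwich immunoassay for endogenous ERK1/2 phosphorylated on Thr202/Tyr204. Signal was measured in NCI-H441 lung adenocarcinoma cells after 1 hr compound exposure at 37 °C. IC50 values come from fitted concentration-response curves.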

[1] = Homo sapiens, NCI-H441, cellular pERK (Thr202/Tyr204) HTRF
[2] = cellular pERK (Thr202/Tyr204) HTRF

IC50 [1] [nM]	IC50 [2] [nM]	SMILES
500 to 10000		C#Cc1c(C(F)(F)F)ccc2cccc(-c3ncc4c(N5CCOC[C@H]6[C@H](F)[C@H]65)nc(OC[C@]56C[C@@H](F)CN5C[C@@H](CN)C6)nc4c3F)c12 [Example 336, ((2R,6R,7aS)-7a-(((7-(8-ethynyl-7-(trifluoromethyl)naphthalen-1-yl)-8-fluoro-4-((1S,7S,8S)-8-fluoro-5-oxa-2-azabicyclo[5.1.0]octan-2-yl)pyrido[4,3-d]pyrimidin-2-yl)oxy)methyl)-6-fluorohexahydro-1H-pyrrolizin-2-yl)methanamine]
< 50		[2H]C([2H])(Oc1nc(N2CCOC[C@H]3[C@H](F)[C@H]32)c2cnc(-c3cc(N)cc4ccc(Cl)c(C#C)c34)c(F)c2n1)[C@@]12CCCN1[C@H](C)[C@H](F)C2 [Example 337, 6-chloro-5-ethynyl-4-(8-fluoro-2-(((2R,3R,7aS)-2-fluoro-3-methyltetrahydro-1H-pyrrolizin-7a(5H)-yl)methoxy-d2)-4-((1S,7S,8S)-8-fluoro-5-oxa-2-azabicyclo[5.1.0]octan-2-yl)pyrido[4,3-d]pyrimidin-7-yl)naphthalen-2-amine]
< 50		[2H]C([2H])(Oc1nc(N2CCOC[C@H]3[C@H](F)[C@H]32)c2cnc(-c3cc(N)cc4cccc(C#C)c34)c(F)c2n1)[C@@]12CCCN1[C@H](C)[C@H](F)C2 [Example 338, 5-ethynyl-4-(8-fluoro-2-(((2R,3R,7aS)-2-fluoro-3-methyltetrahydro-1H-pyrrolizin-7a(5H)-yl)methoxy-d2)-4-((1S,7S,8S)-8-fluoro-5-oxa-2-azabicyclo[5.1.0]octan-2-yl)pyrido[4,3-d]pyrimidin-7-yl)naphthalen-2-amine]
500 to 10000		[2H]C([2H])(Oc1nc(N2CCOC[C@@H]3[C@@H](Cl)[C@@H]32)c2cnc(-c3cc(N)cc4ccc(Cl)c(C#C)c34)c(F)c2n1)[C@@]12CCCN1[C@H](C)[C@H](F)C2 [Example 345, 6-chloro-4-(4-((1R,7R,8R)-8-chloro-5-oxa-2-azabicyclo[5.1.0]octan-2-yl)-8-fluoro-2-(((2R,3R,7aS)-2-fluoro-3-methyltetrahydro-1H-pyrrolizin-7a(5H)-yl)methoxy-d2)pyrido[4,3-d]pyrimidin-7-yl)-5-ethynylnaphthalen-2-amine]
500 to 10000		[2H]C([2H])(Oc1nc(N2CCOC[C@@H]3[C@@H](Cl)[C@@H]32)c2cnc(-c3cc(N)cc4cccc(C#C)c34)c(F)c2n1)[C@@]12CCCN1[C@H](C)[C@H](F)C2 [Example 346, 4-(4-((1R,7R,8R)-8-chloro-5-oxa-2-azabicyclo[5.1.0]octan-2-yl)-8-fluoro-2-(((2R,3R,7aS)-2-fluoro-3-methyltetrahydro-1H-pyrrolizin-7a(5H)-yl)methoxy-d2)pyrido[4,3-d]pyrimidin-7-yl)-5-ethynylnaphthalen-2-amine]
500 to 10000		C#Cc1c(F)ccc2cc(N)cc(-c3ncc4c(N5CCOC[C@@H]6[C@@H](Cl)[C@@H]65)nc(OC[C@]56CC(=C)CN5CCC65CC5)nc4c3C)c12 [Example 347, 4-(4-((1R,7R,8R)-8-chloro-5-oxa-2-azabicyclo[5.1.0]octan-2-yl)-8-methyl-2-(((R)-6′-methylenetetrahydrospiro[cyclopropane-1,1′-pyrrolizin]-7a′(5′H)-yl)methoxy)pyrido[4,3-d]pyrimidin-7-yl)-5-ethynyl-6-fluoronaphthalen-2-amine]
< 50		[2H]C([2H])(Oc1nc(N2CCOC[C@H]3[C@H](Cl)[C@H]32)c2cnc(-c3cc(N)cc4cccc(C#C)c34)c(F)c2n1)[C@@]12CCCN1[C@H](C)[C@H](F)C2 [Example 348, 4-(4-((1S,7S,8S)-8-chloro-5-oxa-2-azabicyclo[5.1.0]octan-2-yl)-8-fluoro-2-(((2R,3R,7aS)-2-fluoro-3-methyltetrahydro-1H-pyrrolizin-7a(5H)-yl)methoxy-d2)pyrido[4,3-d]pyrimidin-7-yl)-5-ethynylnaphthalen-2-amine]
	< 50	[2H]C([2H])(Oc1nc(N2CCOC[C@H]3[C@H](F)[C@H]32)c2cc(C#N)c(-c3cc(N)cc4ccc(F)c(C#C)c34)c(F)c2n1)[C@@]12CCCN1C[C@H](F)C2 [Example 353, 7-(3-Amino-8-ethynyl-7-fluoronaphthalen-1-yl)-8-fluoro-4-((1S,7S,8S)-8-fluoro-5-oxa-2-azabicyclo[5.1.0]octan-2-yl)-2-(((2R,7aS)-2-fluorotetrahydro-1H-pyrrolizin-7a(5H)-yl)methoxy-d2)quinazoline-6-carbonitrile]
	< 50	[2H]C([2H])(Oc1nc(N2CCOC[C@H]3[C@H](F)[C@H]32)c2cc(Cl)c(-c3cc(N)cc4ccc(F)c(C#C)c34)c(F)c2n1)[C@@]12CCCN1C[C@H](F)C2 [Example 354, 4-(6-chloro-8-fluoro-4-((1S,7S,8S)-8-fluoro-5-oxa-2-azabicyclo[5.1.0]octan-2-yl)-2-(((2R,7aS)-2-fluorotetrahydro-1H-pyrrolizin-7a(5H)-yl)methoxy-d2)quinazolin-7-yl)-5-ethynyl-6-fluoronaphthalen-2-amine]
	< 50	[2H]C([2H])(Oc1nc(N2CCOC[C@H]3[C@H](F)[C@H]32)c2cc(F)c(-c3cc(N)cc4ccc(F)c(C#C)c34)c(F)c2n1)[C@@]12CCCN1C[C@H](F)C2 [Example 355, 4-(6,8-difluoro-4-((1S,7S,8S)-8-fluoro-5-oxa-2-azabicyclo[5.1.0]octan-2-yl)-2-(((2R,7aS)-2-fluorotetrahydro-1H-pyrrolizin-7a(5H)-yl)methoxy-d2)quinazolin-7-yl)-5-ethynyl-6-fluoronaphthalen-2-amine]
< 50		C#Cc1c(F)ccc2cc(N)cc(-c3ncc4c(N5CCOC[C@H]6[C@H](F)[C@H]65)nc(OC[C@]56C/C(=C\F)CN5CCC65CC5)nc4c3F)c12 [Example 362, 5-Ethynyl-6-fluoro-4-(8-fluoro-4-((1S,7S,8S)-8-fluoro-5-oxa-2-azabicyclo[5.1.0]octan-2-yl)-2-(((R,E)-6′-(fluoromethylene)tetrahydrospiro[cyclopropane-1,1′-pyrrolizin]-7a′(5′H)-yl)methoxy)pyrido[4,3-d]pyrimidin-7-yl)naphthalen-2-amine]
< 50		C#Cc1c(F)ccc2cc(N)cc(-c3ncc4c(N5CCOC[C@H]6[C@H](F)[C@H]65)nc(OC[C@]56C/C(=C/F)CN5CCC65CC5)nc4c3F)c12 [Example 363, 5-Ethynyl-6-fluoro-4-(8-fluoro-4-((1S,7S,8S)-8-fluoro-5-oxa-2-azabicyclo[5.1.0]octan-2-yl)-2-(((R,Z)-6′-(fluoromethylene)tetrahydrospiro[cyclopropane-1,1′-pyrrolizin]-7a′(5′H)-yl)methoxy)pyrido[4,3-d]pyrimidin-7-yl)naphthalen-2-amine]
< 50		C#Cc1c(F)ccc2cc(N)cc(-c3ncc4c(N5CCOC[C@H]6[C@H](F)[C@H]65)nc(OC[C@]56C[C@@H](F)CN5CCC6=C)nc4c3F)c12 [Example 364, 5-ethynyl-6-fluoro-4-(8-fluoro-2-(((6R,7aR)-6-fluoro-1-methylenetetrahydro-1H-pyrrolizin-7a(5H)-yl)methoxy)-4-((1S,7S,8S)-8-fluoro-5-oxa-2-azabicyclo[5.1.0]octan-2-yl)pyrido[4,3-d]pyrimidin-7-yl)naphthalen-2-amine]
< 50		[2H]C([2H])(Oc1nc(N2CCOC[C@H]3[C@H](Cl)[C@H]32)c2cnc(-c3cc(N)cc4ccc(C)c(C#C)c34)c(F)c2n1)[C@@]12CCCN1[C@H](C)[C@H](F)C2 [Example 366, 4-(4-((1S,7S,8S)-8-chloro-5-oxa-2-azabicyclo[5.1.0]octan-2-yl)-8-fluoro-2-(((2R,3R,7aS)-2-fluoro-3-methyltetrahydro-1H-pyrrolizin-7a(5H)-yl)methoxy-d2)pyrido[4,3-d]pyrimidin-7-yl)-5-ethynyl-6-methylnaphthalen-2-amine]
< 50		C=C1CN2CCC[C@@]2(COc2nc(N3CCCC[C@H]4[C@H](F)[C@H]43)c3cnc(-c4cc(N)cc(Cl)c4C(F)(F)F)c(F)c3n2)C1 [Example 367, 3-chloro-5-(8-fluoro-4-((1S,7R,8S)-8-fluoro-2-azabicyclo[5.1.0]octan-2-yl)-2-(((S)-2-methylenetetrahydro-1H-pyrrolizin-7a(5H)-yl)methoxy)pyrido[4,3-d]pyrimidin-7-yl)-4-(trifluoromethyl)aniline]
500 to 10000		C=C1CN2CCC[C@@]2(COc2nc(N3CCCC[C@@H]4[C@@H](F)[C@@H]43)c3cnc(-c4cc(N)cc(Cl)c4C(F)(F)F)c(F)c3n2)C1 [Example 368, 3-chloro-5-(8-fluoro-4-((1R,7S,8R)-8-fluoro-2-azabicyclo[5.1.0]octan-2-yl)-2-(((S)-2-methylenetetrahydro-1H-pyrrolizin-7a(5H)-yl)methoxy)pyrido[4,3-d]pyrimidin-7-yl)-4-(trifluoromethyl)aniline]
50 to 500		Nc1cc(Cl)c(C(F)(F)F)c(-c2ncc3c(N4CCCC[C@H]5[C@H](F)[C@H]54)nc(OC[C@@]45CCCN4CC(=C(F)F)C5)nc3c2F)c1 [Example 369, 3-chloro-5-(2-(((S)-2-(difluoromethylene)tetrahydro-1H-pyrrolizin-7a(5H)-yl)methoxy)-8-fluoro-4-((1S,7R,8S)-8-fluoro-2-azabicyclo[5.1.0]octan-2-yl)pyrido[4,3-d]pyrimidin-7-yl)-4-(trifluoromethyl)aniline]
500 to 10000		Nc1cc(Cl)c(C(F)(F)F)c(-c2ncc3c(N4CCCC[C@@H]5[C@@H](F)[C@@H]54)nc(OC[C@@]45CCCN4CC(=C(F)F)C5)nc3c2F)c1 [Example 370, 3-chloro-5-(2-(((S)-2-(difluoromethylene)tetrahydro-1H-pyrrolizin-7a(5H)-yl)methoxy)-8-fluoro-4-((1R,7S,8R)-8-fluoro-2-azabicyclo[5.1.0]octan-2-yl)pyrido[4,3-d]pyrimidin-7-yl)-4-(trifluoromethyl)aniline]
